Data as given in PMC11062899, “De novo development of small cyclic peptides that are orally bioavailable” (Nature Chemical Biology, 2023).
Several values for one entry are separate records, joined by “and”; a condition that tells them apart may be missing. Identical values can stand only once.

Legend:
[1] = biological target: human α-thrombin (Homo sapiens, UniProt P00734); experiment: Protease inhibition, Ki for human α-thrombin (fluorogenic substrate Z-Gly-Gly-Arg-AMC); assay type: biochemical; conditions: replicates R1-R3
Method in brief: (§1)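 Ki values come from Cheng–Prusoff correction of IC50, itself fitted by four-parameter logistic regression of activity versus a no-peptide control. Assays used 2 nM human or 3 nM rat thrombin, 50 μM Z-Gly-Gly-Arg-AMC, 30 min kinetic fluorescence at 25 °C.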

[2] = biological target: T1, rat α-thrombin (Rattus norvegicus, UniProt P18292); experiment: Protease inhibition, Ki for rat α-thrombin (fluorogenic substrate Z-Gly-Gly-Arg-AMC); assay type: biochemical; conditions: replicates R1-R3
T1 construct: rat α-thrombin (Molecular Innovations) were used at final concentrations of 2 nM and 3 nM; purchased Molecular Innovations
Method in brief: as §1

[3] = biological target: T2, porcine pepsin (Sus scrofa, UniProt P00791); experiment: Peptide stability in simulated gastric fluid (SGF); assay type: in vitro ADME
T2 construct: 0.32 g of porcine pepsin (Sigma-Aldrich, P7125) was dissolved under gentle agitation; purchased Sigma-Aldrich P7125
Description: (§2) Simulated gastric and intestinal fluids were prepared according to the States Pharmacopeia specifications (Test Solutions, United States Pharmacopeia 35, NF 30, 2012). SGF: 0.2 g of sodium chloride was dissolved in 50 ml of water, and the pH was adjusted to 1.2 by addition of 0.7 ml of 10 M hydrochloric acid. Then, 0.32 g of porcine pepsin (Sigma-Aldrich, P7125) was dissolved under gentle agitation, and the volume was filled up to 100 ml with Milli-Q water. SIF: 0.68 g of monobasic potassium phosphate was dissolved in 25 ml of Milli-Q water, and the pH was adjusted to 6.8 by adding 7.7 ml of a 0.2 M sodium hydroxide solution. Next, 1 g of porcine pancreatin (Sigma-Aldrich, P3292) was added under gentle agitation, and the volume was adjusted to 100 ml with Milli-Q water to afford a fine suspension. To test the stability in simulated gastrointestinal fluids, 396 μl of SGF or SIF was pre-heated at 37 °C for 10 min, and 4 μl of a 1 mM peptide solution in DMSO was added. […] Supernatant was analyzed by LC–MS to measure the peptide concentrations at the different timepoints. Residual peptide was calculated by normalizing the concentrations measured at T1 to T0.

[4] = Peptide stability in simulated intestinal fluid (SIF); assay type: in vitro ADME, porcine; conditions: simulated gi fluid; 8 h, 37 °C, pH 6.8; read-out: Proteolytic stability: SIF (8 h) % remaining
Description: as §2

[5] = system: porcine pancreatin; experiment: as above; assay type: in vitro ADME; conditions: after 8 h vs 0 h (TIC)
Description: as §2

[6] = Passive artificial membrane permeability (PAMPA)
[7] = Metabolic stability in rat liver microsomes (RLMs); conditions: rat, microsomes
[8] = peptide 1.33E+02 uM, slope of proteolytic substrate cleavage over time

T2 sequence (P00791 60-385): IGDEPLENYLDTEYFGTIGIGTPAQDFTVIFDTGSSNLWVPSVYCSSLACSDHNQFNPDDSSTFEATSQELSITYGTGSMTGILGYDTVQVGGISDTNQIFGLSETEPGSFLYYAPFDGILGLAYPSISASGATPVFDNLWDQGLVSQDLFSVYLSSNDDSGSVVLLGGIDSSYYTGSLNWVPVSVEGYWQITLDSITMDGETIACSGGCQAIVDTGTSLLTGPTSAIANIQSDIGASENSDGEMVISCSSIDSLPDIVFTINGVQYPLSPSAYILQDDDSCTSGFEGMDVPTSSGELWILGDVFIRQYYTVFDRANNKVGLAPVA

Human alpha thrombin inhibition, slope normalized to DMSO ([1]; peptide 1.02E-03 uM): 100.6 and 102.2 and 99.4
Human alpha thrombin inhibition, slope normalized to DMSO ([1]; peptide 1.04E+00 uM): 91.1 and 87.4 and 92.0
Human alpha thrombin inhibition, slope normalized to DMSO ([1]; peptide 1.27E-04 uM): 100.4 and 99.0 and 100.8
Human alpha thrombin inhibition, slope normalized to DMSO ([1]; peptide 1.30E-01 uM): 103.2 and 98.5 and 101.7
Human alpha thrombin inhibition, slope normalized to DMSO [1, 8]: 16.8 and 18.7 and 23.0
Human alpha thrombin inhibition, slope normalized to DMSO ([1]; peptide 1.63E-02 uM): 79.4 and 98.4 and 92.1
Human alpha thrombin inhibition, slope normalized to DMSO ([1]; peptide 1.67E+01 uM): 53.5 and 53.3 and 56.4
Human alpha thrombin inhibition, slope normalized to DMSO ([1]; peptide 2.03E-03 uM): 77.9 and 96.7 and 93.1
Human alpha thrombin inhibition, slope normalized to DMSO ([1]; peptide 2.08E+00 uM): 88.5 and 72.9 and 90.5
Human alpha thrombin inhibition, slope normalized to DMSO ([1]; peptide 2.54E-04 uM): 100.6 and 92.1 and 94.0
Human alpha thrombin inhibition, slope normalized to DMSO ([1]; peptide 2.60E-01 uM): 98.5 and 95.3 and 96.4
Human alpha thrombin inhibition, slope normalized to DMSO ([1]; peptide 3.18E-05 uM): 102.4 and 100.9 (2×)
Human alpha thrombin inhibition, slope normalized to DMSO ([1]; peptide 3.26E-02 uM): 99.5 and 98.1 and 103.6
Human alpha thrombin inhibition, slope normalized to DMSO ([1]; peptide 3.33E+01 uM): 35.9 and 38.0 and 41.6
Human alpha thrombin inhibition, slope normalized to DMSO ([1]; peptide 4.07E-03 uM): 103.3 and 98.8 and 95.5
Human alpha thrombin inhibition, slope normalized to DMSO ([1]; peptide 4.17E+00 uM): 79.3 and 79.5 and 79.0
Human alpha thrombin inhibition, slope normalized to DMSO ([1]; peptide 5.09E-04 uM): 102.1 and 100.7 and 91.1
Human alpha thrombin inhibition, slope normalized to DMSO ([1]; peptide 5.21E-01 uM): 99.8 and 93.6 and 95.9
Human alpha thrombin inhibition, slope normalized to DMSO ([1]; peptide 6.36E-05 uM): 102.4 and 110.3 and 102.0
Human alpha thrombin inhibition, slope normalized to DMSO ([1]; peptide 6.51E-02 uM): 102.8 and 95.7 and 101.3
Human alpha thrombin inhibition, slope normalized to DMSO ([1]; peptide 6.67E+01 uM): 23.2 and 24.0 and 29.0
Human alpha thrombin inhibition, slope normalized to DMSO ([1]; peptide 8.14E-03 uM): 99.1 and 108.8 and 87.5
Human alpha thrombin inhibition, slope normalized to DMSO ([1]; peptide 8.33E+00 uM): 72.2 and 85.5 and 69.3
Rat alpha thrombin inhibition, slope normalized to DMSO [2, 8]: 12.2 (2×) and 11.8
Rat alpha thrombin inhibition, slope normalized to DMSO ([2]; peptide 1.67E+01 uM): 38.3 and 37.3 and 38.4
Rat alpha thrombin inhibition, slope normalized to DMSO ([2]; peptide 2.08E+00 uM): 79.7 and 78.5 and 79.5
Rat alpha thrombin inhibition, slope normalized to DMSO ([2]; peptide 3.33E+01 uM): 24.3 and 23.3 and 23.8
Rat alpha thrombin inhibition, slope normalized to DMSO ([2]; peptide 4.17E+00 uM): 68.5 and 68.7 and 67.7
Rat alpha thrombin inhibition, slope normalized to DMSO ([2]; peptide 6.67E+01 uM): 14.7 and 14.3 and 13.4
Rat alpha thrombin inhibition, slope normalized to DMSO ([2]; peptide 8.33E+00 uM): 56.8 and 54.3 and 57.8
SGF stability, Residual peptide Average ([3]; after 8 h vs 0 h (TIC), average of R1-R3): 95.21
SGF stability, Residual peptide ([3]; after 8 h vs 0 h (TIC), single replicates R1-R3): 100.04 and 92.83 and 92.76
remaining at 8 h ([3]; simulated gi fluid, 8 h, 37 °C, pH 1.2, read-out: Proteolytic stability: SGF (8 h) % remaining): 95 ± 4%
remaining at 8 h [4]: 94 ± 12%
SIF stability, Residual peptide Average ([5]; average of R1-R3): 94.01
SIF stability, Residual peptide ([5]; single replicates R1-R3): 86.19 and 87.95 and 107.89
PAMPA permeability: % permeability ([6]; 50 μM, 12–18 h, acceptor concentration relative to equilibrium): 30 ± 7%
Papp at 50 μM ([6]; PAMPA, pH 7.4): 2.29 ×10⁻⁶ cm/s
Permeability% Average ([6]; PAMPA, average of R1-R3): 29.5%
Permeability% R1 ([6]; PAMPA, replicate R1, TIC of top well sample relative to sample at theoretical equilibrium): 35.05%
Permeability% R3 ([6]; PAMPA, replicate R3, TIC of top well sample relative to sample at theoretical equilibrium): 31.19%
microsomal CLint ([7]; CL (ul/min/mg protein) R1, RLM CL, replicate R1): 81.1 µL/min/mg
microsomal CLint ([7]; CL (ul/min/mg protein) R2, RLM CL, replicate R2): 96.1 µL/min/mg
microsomal CLint ([7]; CL (ul/min/mg protein) R3, RLM CL, replicate R3): 78 µL/min/mg
half-life ([7]; Half Life (min) R1, RLM metabolic stability, replicate R1, 0-60 min): 17.1 min
half-life ([7]; Half Life (min) R2, RLM metabolic stability, replicate R2, 0-60 min): 14.4 min
half-life ([7]; Half Life (min) R3, RLM metabolic stability, replicate R3, 0-60 min): 17.8 min
half-life ([7]; Metabolic stability: Half life T1/2 (min), RLMs, mean and SD, three measurements): 16.4 ± 1.4 min
microsomal CLint ([7]; Metabolic stability: RLM CL (ul/min/mg), RLMs, mean and SD, three measurements): 85 ± 8 µL/min/mg
SMILES: O=C(N[C@H]1CSCc2cccc(n2)CSCCNC(=O)[C@H](Cc2ccccn2)NC(=O)C2(CCCC2)NC1=O)c1ccc(Cl)s1 [compound 28]
